In series [1] the test system is B16. In words: Antitumor activity against subcutaneously B16 melanoma cells in mice expressed as ratio of median survival time for treated group to that of control group at an optimal dose of 0.8 mg/kg. To be noted: route subcutaneous. It is filed as functional, Mus musculus.
The subject of series [2] is B16. Briefly: Antitumor activity against subcutaneously B16 melanoma cells in mice at an optimal dose of 0.8 mg/kg expressed as […] effective dose. The format is functional, Mus musculus. As to conditions: route subcutaneous; for minimal effective dose at 0.8 mg/kg: Mus musculus, B16, sc, read-out: MED.
Series [3] deals with P388. Briefly: Antitumor activity against intraperitoneally implanted P388 leukemia cells in mice at an optimal dose of 0.8 mg/kg expressed as […] effective dose. It is filed as functional. As to conditions: Mus musculus, P388, ip, route intraperitoneal, read-out: MED.
In series [4] the test system is P388. In words: Antitumor activity against intraperitoneally implanted P388 leukemia cells in mice expressed as ratio of median survival time for treated group to that of control group at an optimal dose of 0.8 mg/kg. It is filed as functional, Mus musculus. As to conditions: route intraperitoneal.
Series [5] can be described thus: Partition coefficient (logP). It is filed as physicochemical. As to conditions: octanol/water.
The subject of series [6] is P388. Briefly: Antitumor activity against intraperitoneally implanted P388 leukemia cells in mice expressed as ratio of median survival time for treated group to that of control group at an optimal dose 0.8 mg/kg. It is filed as functional, Mus musculus. As to conditions: route intraperitoneal.
Series [7] concerns P388. In words: Antitumor activity against intraperitoneally implanted P388 leukemia cells in mice at an optimal dose 0.8 mg/kg expressed as […] effective dose. It is filed as functional. As to conditions: Mus musculus, P388, ip, route intraperitoneal, read-out: MED.
Series [8] has as its system P388. In words: Antitumor activity against intraperitoneally implanted P388 leukemia cells in mice at an optimal dose of 3.2 mg/kg expressed as […] effective dose. As to conditions: Mus musculus, P388, ip, route intraperitoneal, read-out: MED. It is filed as functional.
The subject of series [9] is P388. Briefly: Antitumor activity against intraperitoneally implanted P388 leukemia cells in mice expressed as ratio of median survival time for treated group to that of control group at an optimal dose of 3.2 mg/kg. The format is functional, Mus musculus. As to conditions: route intraperitoneal.
For series [10], the system named is P388. In words: Antitumor activity against intraperitoneally implanted P388 leukemia cells in mice expressed as ratio of median survival time for treated group to that of control group at an optimal dose of 1.6 mg/kg. The format is functional, Mus musculus. As to conditions: route intraperitoneal.
Series [11] has as its system P388. In words: Antitumor activity against intraperitoneally implanted P388 leukemia cells in mice at an optimal dose of 1.6 mg/kg expressed as […] effective dose. The format is functional. As to conditions: Mus musculus, P388, ip, route intraperitoneal, read-out: MED.
In series [12] the test system is B16. Briefly: Antitumor activity against subcutaneously B16 melanoma cells in mice expressed as […] effective dose at an optimal dose of 0.8 mg/kg. The format is functional. As to conditions: Mus musculus, B16, sc, route subcutaneous, read-out: MED.
Series [13] deals with P388. Briefly: Antitumor activity against intraperitoneally implanted P388 leukemia cells in mice expressed as ratio of median survival time for treated group to that of control group at an optimal dose of 0.4 mg/kg. The format is functional, Mus musculus. To be noted: route intraperitoneal.
Series [14] has as its system P388. In words: Antitumor activity against intraperitoneally implanted P388 leukemia cells in mice at an optimal dose of 0.4 mg/kg expressed as […] effective dose. The format is functional, Mus musculus. To be noted: route intraperitoneal; for minimal effective dose at 0.4 mg/kg: Mus musculus, P388, ip, read-out: MED.
The subject of series [15] is P388. In words: Antitumor activity against intraperitoneally implanted P388 leukemia cells in mice expressed as ratio of median survival time for treated group to that of control group at an optimal dose of 6.4 mg/kg. It is filed as functional, Mus musculus. As to conditions: route intraperitoneal.
Series [16] deals with P388. Briefly: Antitumor activity against intraperitoneally implanted P388 leukemia cells in mice at an optimal dose of 6.4 mg/kg expressed as […] effective dose. It is filed as functional. As to conditions: Mus musculus, P388, ip, route intraperitoneal, read-out: MED.
Series [17] has as its system B16. Briefly: Antitumor activity against subcutaneously B16 melanoma cells in mice at an optimal dose of 1.6 mg/kg expressed as […] effective dose. It is filed as functional. As to conditions: Mus musculus, B16, sc, route subcutaneous, read-out: MED.
The test system of series [18] is B16. In words: (§1) Antitumor activity against subcutaneously B16 melanoma cells in mice expressed as ratio of median survival time for treated group to that of control group at an optimal dose of 1-3 mg/kg. The format is functional, Mus musculus.
Series [19] deals with B16. Briefly: Antitumor activity against subcutaneously B16 melanoma cells in mice expressed as ratio of median survival time for treated group to that of control group at an optimal dose of 1.6 mg/kg. The format is functional, Mus musculus. As to conditions: route subcutaneous.
For series [20], the system named is B16. In words: Antitumor activity against subcutaneously B16 melanoma cells in mice expressed as ratio of median survival time for treated group to that of control group at an optimal dose of 0.4 mg/kg. As to conditions: route subcutaneous. The format is functional, Mus musculus.
Series [21] deals with B16. Briefly: Antitumor activity against subcutaneously B16 melanoma cells in mice at an optimal dose of 0.4 mg/kg expressed as […] effective dose. The format is functional. To be noted: Mus musculus, B16, sc, route subcutaneous, read-out: MED.
The subject of series [22] is B16. The series is described as §1. It is filed as functional, Mus musculus. The source holds these as a separate data set.
Series [23] concerns P388. Briefly: Antitumor activity against intraperitoneally implanted P388 leukemia cells in mice expressed as ratio of median survival time for treated group to that of control group at an optimal dose of 0.2 mg/kg. It is filed as functional, Mus musculus. As to conditions: route intraperitoneal.
Series [24] deals with P388. Briefly: Antitumor activity against intraperitoneally implanted P388 leukemia cells in mice expressed as ratio of median survival time for treated group to that of control group given in equally divided doses on days 1,4 and 7. The format is functional, Mus musculus.
Series [25] has as its system P388. Briefly: Antitumor activity against intraperitoneally implanted P388 leukemia cells in mice at an optimal dose of 0.2 mg/kg expressed as […] effective dose. It is filed as functional. As to conditions: Mus musculus, P388, ip, route intraperitoneal, read-out: MED.

Where “and” joins values, the source holds several entries; their conditions need not be identical. Equal values may be shown once.

For orientation: T/C means the ratio of treated to control. For orientation: logP means the decadic logarithm of the partition coefficient of the neutral form, usually between octanol and water. For `COCCOCCOC1=C(C)C(=O)C2=C(C1=O)C(COC(N)=O)[C@@]1(OC)C3NC3CN21` (some centres not stated), the T/C in the series with B16 [1] (0.8 mg/kg) was >191% and >265%; in the series on P388 [4], 225%. The minimal effective dose at 0.8 mg/kg is 0.4 mg/kg with B16 [2] and < 0.1 mg/kg in the series with P388 [3]. This compound also had an MED in the series on B16 [2] of 0.4 mg/kg. Also, the logP in series [5] is 0.32.
Regarding `CO[C@@]12C(COC(N)=O)C3=C(C(=O)C(C)=C(OCC4CCCCO4)C3=O)N1CC1NC12` (some centres not stated), the T/C in the series with P388 [6] is on record as 161%. The lipophilicity (logP) in series [5] stood at 1.79. Moreover, in the series with P388 [7], the minimal effective dose at 0.8 mg/kg is 0.1 mg/kg.
Consider `CO[C@@]12C(COC(N)=O)C3=C(C(=O)C(C)=C(OCCCCl)C3=O)N1CC1NC12` (some centres not stated), for which, in the series with P388 [8], the minimal effective dose at 3.2 mg/kg turned out to be 0.2 mg/kg. The T/C with P388 [9] came out at 150%. The same compound came in with a logP in series [5] of 1.65.
On to `CO[C@@]12C(COC(N)=O)C3=C(C(=O)C(C)=C(OCCCO)C3=O)N1CC1NC12` (some centres not stated), for which the T/C in the series on P388 [10] came to 175%. The minimal effective dose at 1.6 mg/kg in the series on P388 [11] worked out at 0.05 mg/kg. In addition, the logP in series [5] was found to be 0.14.
Take `CO[C@@]12C(COC(N)=O)C3=C(C(=O)C(C)=C(OCCOCCO)C3=O)N1CC1NC12` (some centres not stated): the T/C is >265% in the series on B16 [1] and 210% in the series on P388 [13]. In addition, in the series on B16 [12], the minimal effective dose at 0.8 mg/kg came to 0.4 mg/kg. Also, the minimal effective dose at 0.4 mg/kg in the series on P388 [14] was 0.1 mg/kg.
Regarding `CO[C@@]12C(COC(N)=O)C3=C(C(=O)C(C)=C(OCc4ccco4)C3=O)N1CC1NC12` (some centres not stated), the T/C in the series on P388 [15] is 139%. Also, the minimal effective dose at 6.4 mg/kg with P388 [16] is 6.4 mg/kg. Moreover, the logP in series [5] was 1.6.
`CO[C@@]12C(COC(N)=O)C3=C(C(=O)C(C)=C(OC4CCOC4)C3=O)N1CC1NC12` (some centres not stated): the minimal effective dose at 1.6 mg/kg with B16 [17] is 1.6 mg/kg. For the same compound, in the series on P388 [8], the minimal effective dose at 3.2 mg/kg was < 0.05 mg/kg. The T/C in the series with B16 [18] stood at 135%; in the series on P388 [9] it was 178%; with B16 [19] it was 198%. The lipophilicity (logP) in series [5] worked out at 0.79.
With `CCOCCOCCOC1=C(C)C(=O)C2=C(C1=O)C(COC(N)=O)[C@@]1(OC)C3NC3CN21` (some centres not stated), the values for the T/C in the series with P388 [10] and in the series with B16 [20] were 167% and 196%, respectively. In addition, the minimal effective dose at 1.6 mg/kg in the series with P388 [11] is < 0.1 mg/kg. In addition, in series [5], the logP came out at 0.82. Moreover, the minimal effective dose at 0.4 mg/kg in the series on B16 [21] came out at 0.2 mg/kg.
For `CO[C@@]12C(COC(N)=O)C3=C(C(=O)C(C)=C(OCCSSCCO)C3=O)N1CC1NC12` (some centres not stated), the T/C in the series with P388 [10] was 259%; with B16 [1] it was 243%; in the series on B16 [22] it was 136%. In addition, the minimal effective dose at 0.8 mg/kg in the series with B16 [2] was 0.2 mg/kg. The compound also came in with a logP in series [5] of 1.35.
Turning to `CO[C@@]12C(COC(N)=O)C3=C(C(=O)C(C)=C(OCCO)C3=O)N1CC1NC12` (some centres not stated), the T/C is 217% with P388 [23]; 194% in the series with P388 [24]; 178% in the series on B16 [20]; 178% and >328% with P388 [13] (0.4 mg/kg). Besides, in the series with P388 [25], the minimal effective dose at 0.2 mg/kg is < 0.1 mg/kg. Also, the values for the minimal effective dose at 0.4 mg/kg with P388 [14] and with B16 [21] were 0.0063 mg/kg and 0.2 mg/kg, respectively. Further, the MED in the series with P388 [14] was found to be 0.0063 mg/kg.
Consider `CO[C@@]12C(COC(N)=O)C3=C(C(=O)C(C)=C(OCCSCCO)C3=O)N1CC1NC12` (some centres not stated), for which the minimal effective dose at 0.8 mg/kg in the series with P388 [3] was < 0.1 mg/kg. In the series with P388 [4], the T/C is given as 250%. The logP in series [5] was 1.07.
Turning to `CO[C@@]12C(COC(N)=O)C3=C(C(=O)C(C)=C(OCC4CCC4)C3=O)N1CC1NC12` (some centres not stated), in the series on P388 [10], the T/C is 144%. The minimal effective dose at 1.6 mg/kg in the series with P388 [11] was 0.4 mg/kg. This compound also gave a log partition coefficient (logP) in [5] of 2.26.

Values taken from ChEMBL document CHEMBL1123664, “Preparation and antitumor activity of new mitomycin A analogues” (J Med Chem, 1987).
